# Target: T1, His-TtCbs1 (TtCbs1, cystathionine β-synthase) (Tetrahymena thermophila, UniProt I7M350)
# T1 construct: gene TTHERM_00558300
# T1 sequence (I7M350 1-500): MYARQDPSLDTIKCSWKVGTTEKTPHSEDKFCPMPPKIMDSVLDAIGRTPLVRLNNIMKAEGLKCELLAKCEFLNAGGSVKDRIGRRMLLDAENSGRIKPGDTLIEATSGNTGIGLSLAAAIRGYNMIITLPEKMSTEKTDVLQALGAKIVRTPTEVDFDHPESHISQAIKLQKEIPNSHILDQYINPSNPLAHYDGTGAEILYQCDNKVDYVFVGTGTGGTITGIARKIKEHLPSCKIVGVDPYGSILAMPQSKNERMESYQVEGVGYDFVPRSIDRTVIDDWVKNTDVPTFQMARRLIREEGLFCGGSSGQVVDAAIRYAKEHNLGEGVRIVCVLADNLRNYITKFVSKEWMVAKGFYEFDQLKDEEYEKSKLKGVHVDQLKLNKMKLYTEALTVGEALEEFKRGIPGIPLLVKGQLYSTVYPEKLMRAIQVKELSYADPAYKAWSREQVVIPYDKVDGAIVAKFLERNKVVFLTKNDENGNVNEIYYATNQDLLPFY
# Experiment: CdS quantum dot formation from enzymatically released H2S, UV-Vis and fluorescence
# Format: biochemical
# Details: 50 mM Tris-HCl pH 8.5, 37 °C, 0.1 mg/mL enzyme, 4 mM cysteine, 0.5 mM CdCl2; no signal without enzyme
structure (smiles),measurement,value
N[C@@H](CS)C(=O)O [L-cysteine],"CdS quantum dot formation from enzymatically released H2S, UV-Vis and fluorescen","Cysteine, as a thiol compound, serves as a substrate for His-TtCbs1 to produce H2S"

# Reference: PMC12542638, “Cystathionine β-synthase TtCbs1 from Tetrahymena thermophila catalyzes the synthesis of CdS quantum dots for methyl orange decolorization” (Applied and Environmental Microbiology, 2025)
